7 compounds from US11806364B2, “Method for producing myeloid-derived suppressor cells, myeloid-derived suppressor cells produced thereby, and methods thereof” (Industry-Academic Cooperation Foundation, Yonsei University, priority 2017, dated 2023) can be followed below.

Test [1] concerns bone marrow cells. Nature of the test: Differentiation of bone marrow cells with GM-CSF, proportion of CD11c+ cells. The format is cell-based, C57BL/6 mice. The note with it: for capacity of inhibiting dendritic cells (proportion of CD11c^+ cells): 50 ng/ml, 3 method (initiation of differentiation and day 3), day 6 of culture. The protocol:
Whole bone marrow cells in the femurs were harvested from C57BL/6 mice using a bone marrow harvesting needle. The harvested bone marrow cells were washed with PBS and red blood cells (RBCs) were removed using a red blood cell lysis buffer (Sigma Aldrich). The bone marrow cells were dispensed in a 6-well plate (1×10^6 cells/ml; 2 ml/well) and cultured, under a condition of 5% CO2 and 37° C., in complete RPMI 1640 (c-RPMI 1640) medium supplemented with 100 U/mL of penicillin/streptomycin (Lonza, Basel, Switzerland), 10% fetal bovine serum (Lonza), 50 μM mercaptoethanol (Lonza), 0.1 mM non-essential amino acids (Lonza), and GM-CSF (20 ng/mL). […] On day 3 of culture, the bone marrow cells and 1 ml of c-RPMI 1640 medium were added to each well. On day 6 of culture, the cells were collected and stained with Fluorescein-conjugated CD11c mAb to measure a proportion of CD11c^+ cells. […] In addition, in a case where the 3 method is used, proportions of CD11c^+ cells were checked for respective treatment concentrations of each TLR agonist (TLR2 agonist (Pam3)—1, 10, and 50 ng/ml; TLR3 agonist (Poly I:C)—10, 100, and 500 ng/ml; TLR4 agonist (LPS)—1, 10, and 50 ng/ml; TLR7 agonist (imiquimod)—1, 10, and 50 ng/ml; TLR9 agonist (CPG:ODN)—1, 10, and 50 ng/ml).

Test [2] concerns bone marrow cells. Nature of the test: Cytokine applied in place of the TLR agonist, formation of M-MDSCs and dendritic cells. As to conditions: day 6; for M-MDSCs are formed and differentiation into dendritic cells is inhibited: 3 method. The format is cell-based. The source says:
On day 6 of culture, it was identified whether M-MDSCs and dendritic cells are formed.

The subject of another test is M-MDSCs. Nature of the test: Secondary differentiation into dendritic cells of M-MDSCs induced with TLR9 agonist plus IL-6 or IL-6 receptor blocker. The format is cell-based. The note with it: GM-CSF 5 days; compared with only TLR9 agonist. On the procedure:
In order to identify whether the M-MDSCs induced according to respective treatments as described above are secondarily differentiated into dendritic cells, culture was performed for 5 days in the same manner as the method of inducing differentiation into dendritic cells in Example 8.

The test system of test [3] is bone marrow cells. Briefly: IL-6 or IL-6 receptor blocker together with TLR9 agonist, proportions of MDSCs and dendritic cells. As to conditions: applied together with a TLR9 agonist, 3 method, day 6. The format is cell-based. The source says:
In order to evaluate differentiation into M-MDSCs caused by IL-6 and functions of the M-MDSCs, recombinant IL-6 or an IL-6 receptor blocker was applied together with a TLR9 agonist using the 3 method in Example 1, and then the cells were harvested on day 6 of culture. Among the cells harvested according to the respective treatments, proportions of MDSCs and dendritic cells were checked.

Test [4] deals with bone marrow cells. Nature of the test: MDSC subtypes by Gr-1, Ly6G and Ly6C expression. The format is cell-based, C57BL/6 mice. From the text: As illustrated in Example 3, it can be seen that the cells, which have been induced by differentiation from bone marrow cells after TLR stimulation according to the 3 method in Example 1, are MDSCs. On the other hand, subtypes of the MDSCs may be divided into monocytic-MDSCs (M-MDSCs) and granulocytic-MDSCs (G-MDSCs). Gr-1^high cells mostly correspond to G-MDSCs, and Gr-1^low cells may be classified as M-MDSCs.
Thus, for MDSCs harvested after performing culture for 6 days with a Gr-1 antibody using the 3 method in Example 1, an expression level of Gr-1 was checked. The results are illustrated in FIGS. 9 and 10.
Furthermore, in order to accurately classify subtypes of MDSCs, their expression patterns were identified using Ly6G and Ly6C antibodies.

The subject of test [5] is bone marrow cells. Briefly: Proportion of CD11c+MHC-II+ cells after TLR agonist treatment, wild type. The format is cell-based. The note with it: C57BL/6 mice, 3 method. On the procedure:
Additionally, in order to identify whether an effect of inhibiting differentiation into dendritic cells is induced in a MyD88-dependent manner, C57BL/6 mice and C57BL/6 MyD88^−/− mice were treated with a TLR agonist in the same manner as the 3 method in Example 1, to induce differentiation, and then a proportion of CD11c^+MHC-II^+ cells was measured. The results are illustrated in FIGS. 5 and 6.

For test [6], the system named is bone marrow cells. Briefly: Phenotypic analysis of cells induced by TLR stimulation. The format is cell-based, C57BL/6 mice. As to conditions: 3 method, culture for 6 days. The source says:
The results obtained by analyzing phenotypes of cells harvested after treating bone marrow cells with a TLR agonist in the same manner as the 3 method in Example 1 and performing culture for 6 days are illustrated in FIGS. 7 and 8. […] From these expression patterns, it was predictable that the cells induced by differentiation from the bone marrow cells are myeloid-derived suppressor cells (MDSCs).

Test [7] concerns bone marrow cells. Nature of the test: Ly6G/Ly6C expression patterns in C57BL/6 and MyD88^−/− mice. The format is cell-based, C57BL/6 mice and C57BL/6 MyD88^−/− mice. As to conditions: MyD88 dependence study, 3 method. On the procedure:
In order to identify whether differentiation into respective MDSCs' subtypes is induced in a MyD88-dependent manner, C57BL/6 mice and C57BL/6 MyD88^−/− mice were treated in the same manner as the 3 method in Example 1, and then expression patterns of Ly6G and Ly6C were identified in the same manner as in Example 4 (FIG. 13).

Test [8] relates to bone marrow cells. Nature of the test: TLR9 agonist on bone marrow cells of type I IFN receptor knockout mice. The note with it: 3 method, day 6. The format is cell-based. The protocol:
Finally, in order to accurately check the function of type I IFN, bone marrow cells harvested from wild-type mice and type I IFN receptor knockout mice were treated with a TLR9 agonist using the 3 method in Example 1; and on day 6 of culture, degree of formation of PDCA-1^+ M-MDSCs and dendritic cells was evaluated.

The subject of test [9] is bone marrow cells. Briefly: Cytokines induced at early differentiation stages after TLR stimulation. The format is cell-based. The note with it: for cytokines induced at early differentiation stages: 8, 18, and 36 hours after stimulation with TLR agonist; for IFN-γ, IL-15, IL-1β, TGF-β, IL-4, IL-12p70, IL-10, and FLT2L induction: not shown by data. The protocol:
Hereinafter, experiments were conducted assuming that for respective M-MDSCs induced by differentiation upon treatment with a TLR2 or TLR9 agonist, differences in phenotype, T cell inhibition capacity, regulatory T cell formation capacity, and differentiation into dendritic cells are due to different cytokine secretion induced by each TLR stimulation. Therefore, cytokines induced at early differentiation stages (8, 18, and 36 hours after stimulation with TLR agonist) after treatment of bone marrow cells with a TLR2 or TLR9 agonist were analyzed.

The next test relates to Ly6C^+ M-MDSCs. Nature of the test: Ly6C+ M-MDSCs treated with GM-CSF, proportions of CD11c+ cells. The note with it: Ly6C^+ M-MDSCs of day 6, GM-CSF for 3 days. The format is cell-based. The protocol:
Then, GM-CSF was applied in the same manner as in Example 8 and culture was performed for 3 days. Subsequently, proportions of CD11c^+ cells were checked for the respective treatments.
Then, on day 6 of culture, only Ly6C^+ M-MDSCs were collected. Subsequently, GM-CSF was applied in the same manner as in Example 8 and culture was performed for 3 days. Then, proportions of CD11c^+ cells were checked for the respective treatments.

poly I:C [TLR3 agonist]: the “inhibition of differentiation into dendritic cells (proportions of CD11c^+ cells for respective treatment concentrations)” value with bone marrow cells [1] (3 method, 1, 10, 50 ng/ml (TLR3 agonist 10, 100, 500 ng/ml)) is “not observed”.

Turning to IFN-α, the “M-MDSCs are formed and differentiation into dendritic cells is inhibited” value in the test with bone marrow cells [2] is “in a concentration-dependent manner”.

IL-6: recombinant IL-6 protein: the “degree of differentiation of M-MDSCs into dendritic cells” value with M-MDSCs is reported as “remarkably decreased”. In the test on bone marrow cells [3], the “differentiation into PDCA-1^+ M-MDSCs” value was “increased” and the “differentiation into dendritic cells” value is listed as “further decreased”. Besides, in the test on bone marrow cells [2], the “M-MDSCs are formed and differentiation into dendritic cells is inhibited” value is listed as “in a concentration-dependent manner”; the “M-MDSCs having the phenotype CD11c^−CD11b^+Ly6G^− Ly6C^+PDCA-1^−” value is recorded as “induced in large quantities”.

Consider `CC(C)Cn1cnc2c(N)nc3ccccc3c21` [TLR7 agonist, imiquimod], for which the “Gr-1^high MDSCs” value in the test on bone marrow cells [4] (3 method, 6 days) is “induced at a high level”. Besides, the “Ly6C^high M-MDSCs (X4 cells)” value in the test on bone marrow cells [4] (Ly6G and Ly6C antibodies) is given as “induced”. Besides, the “capacity of inhibiting dendritic cells (proportion of CD11c^+ cells)” value (“capacity of inhibiting dendritic cells” below) with bone marrow cells [1] is “strongly induced”. In addition, the “proportion of CD11c^+MHC-II^+ cells” value in the test on bone marrow cells [5] is reported as “decreased”. Besides, in the test with bone marrow cells [6], the “B220, another marker of pDCs” value is listed as “no significant difference” and the “PDCA-1, a marker of plasmacytoid dendritic cells” value was “highly induced”. Further, the “Ly6C^high M-MDSCs (X4 cells)” value in the test on bone marrow cells [7] was “induced”.

Consider `CCCCC[C@H](O)/C=C/[C@H]1[C@H](O)CC(=O)[C@@H]1C/C=C\CCCC(=O)O` [PGE2], for which the “M-MDSCs are formed and differentiation into dendritic cells is inhibited” value in the test with bone marrow cells [2] is “in a concentration-dependent manner”.

As for ODN1826 [TLR9 agonist], in the test with bone marrow cells [4] (3 method, 6 days), the “Gr-1^high MDSCs” value was “induced at a high level”. Also, the “Ly6C^high M-MDSCs (X4 cells)” value with bone marrow cells [4] (Ly6G and Ly6C antibodies) was “induced”. The “capacity of inhibiting dendritic cells” value with bone marrow cells [1] is “strongly induced”. Besides, the “proportion of CD11c^+MHC-II^+ cells” value in the test on bone marrow cells [5] is “decreased”. In addition, in the test on bone marrow cells [6], the “B220, another marker of pDCs” value is “no significant difference” and the “PDCA-1, a marker of plasmacytoid dendritic cells” value is listed as “highly induced”. Further, the “induction of MDSCs” value with bone marrow cells [8] is listed as “not induced”. Besides, in the test with bone marrow cells [9], the “cytokines induced at early differentiation stages” value is “TNF-α, IL-6, IFN-α, and IFN-β”; the “IFN-γ, IL-15, IL-1β, TGF-β, IL-4, IL-12p70, IL-10, and FLT2L induction” value is “not induced”. In the test on bone marrow cells [7], the “Ly6C^high M-MDSCs (X4 cells)” value is reported as “induced”.

With Pam3CSK4 [TLR2 agonist], the “Gr-1^low MDSCs” value in the test with bone marrow cells [4] (3 method, 6 days) is given as “induced at a high level”. For the same compound, in the test with bone marrow cells [4] (Ly6G and Ly6C antibodies), the “Ly6C^int M-MDSCs (X3 cells)” value is “induced”. The “capacity of inhibiting dendritic cells” value in the test with bone marrow cells [1] was “strongly induced”. In addition, the “differentiation into dendritic cells (proportions of CD11c^+ cells)” value with Ly6C^+ M-MDSCs is recorded as “hardly induced”. The “proportion of CD11c^+MHC-II^+ cells” value in the test on bone marrow cells [5] was “decreased”. In the test with bone marrow cells [9], the “cytokines induced at early differentiation stages” value is “TNF-α, IL-6, and PGE2”; the “IFN-γ, IL-15, IL-1β, TGF-β, IL-4, IL-12p70, IL-10, and FLT2L induction” value is recorded as “not induced”. In addition, the IL-6 induction result in the test on bone marrow cells [9] (as compared with a case of being treated with the TLR9 agonist) is reported as “remarkably induced”. Also, the “Ly6C^int M-MDSCs (X3 cells)” value in the test on bone marrow cells [7] was “induced”.
